# Test results taken from US9701689B2, “Substituted pyridines and pyridazines as CCR10 receptor inhibitors” (KYOWA HAKKO KIRIN CO., LTD., priority 2012, dated 2017).
# Target: T1, human CCR10 (Homo sapiens, UniProt P46092)
# T1 construct: expressed in transfected cells; host or cells: KJMGER8 cells (Namalwa cell-derived line), beta-estradiol-induced; hCCR10G16 cells
# T1 sequence (P46092 1-362): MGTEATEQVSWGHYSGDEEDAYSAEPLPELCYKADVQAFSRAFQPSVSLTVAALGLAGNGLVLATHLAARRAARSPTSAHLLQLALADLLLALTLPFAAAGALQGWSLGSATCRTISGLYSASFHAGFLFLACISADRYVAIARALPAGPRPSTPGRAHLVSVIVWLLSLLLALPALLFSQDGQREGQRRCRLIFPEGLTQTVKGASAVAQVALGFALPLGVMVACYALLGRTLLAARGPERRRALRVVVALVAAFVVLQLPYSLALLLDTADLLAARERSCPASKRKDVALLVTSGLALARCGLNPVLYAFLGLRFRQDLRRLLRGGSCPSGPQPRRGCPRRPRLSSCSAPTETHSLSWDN
# Test: CCR10 antagonistic effect: calcium assay of human CCR10 (CTACK-induced increase of intracellular calcium in hCCR10G16 cells)
# Format: cell-based
# Conditions: at a concentration of not more than 1000 nmol/L; human CCR10-expressing hCCR10G16 cells, 300 nmol/L CTACK added; read-out: inhibition of increase in the calcium ion concentration
# Description: [Experimental Example 1] CCR10 Antagonistic Effect
# (1) Preparation of Human CCR10-Inducible Expression Plasmid
# A CCR10-inducible expression plasmid was prepared according to a known method [Analytical Biochemistry, 2006, vol. 400, page 163]. A DNA encoding human CCR10 was obtained by PCR. Using human chromosome DNA (100 ng; manufactured by Clontech) as a template, synthetic DNA having the sequences depicted in SEQ ID NOs: 1 and 2 as a human CCR10 cDNA specific primer, and Pyrobest DNA Polymerase (manufactured by TAKARA SHUZO CO. LTD.) as an enzyme, a DNA encoding human CCR10 was obtained by PCR. As a buffer for PCR, the buffer attached to the enzyme to be used, which was diluted 10-fold with deionized water, was used. Using Thermal Cycler DNA Engine (manufactured by MJ Research), PCR was performed by 35 cycles of reactions composed of an incubation at 94° C. for 30 sec, at an anneal temperature of 58° C. for 30 sec, and at 72° C. for 1 min after treating at 90° C. for 2 min.
# The amplified PCR fragment was cleaved with HindIII and NotI, then a human CCR10 DNA fragment was recovered by the agarose gel electrophoresis method. The fragment was incorporated between the corresponding restriction enzyme sites (HindIII-NotI) of an inducible expression vector to construct a human CCR10-inducible expression plasmid.
# Using a primer specific to the sequence of plasmid (synthetic DNA having the sequences shown in SEQ ID NOs: 3 and 4), the sequence of human CCR10 DNA region was determined. For the determination of the base sequence, DNA Sequencer 377 (manufactured by Perkin Elmer. Co.) and a reaction kit (ABI Prism (registered trade mark) BigDye (registered trade mark) Terminator Cycle Sequencing Ready Reaction kit: manufactured by Applied Biosystems) were used. The sequence of human CCR10 DNA was identical with the sequence (NM 016602) registered in GenBank.
# (2) Preparation of Human CCR10 Expressing Cell for Calcium Assay
# Cells for detecting signals from human CCR10 in calcium assay were prepared. According to a known method [Analytical.Biochemistry (Analy Biochem), 2006, vol. 400, page 163], human CCR10-inducible expressing cells whose host cell is KJMGER8 cell (Namalwa cell-derived cell line) were prepared. Human CCR10-inducible expression plasmid produced above and Gα16 expression plasmid were co-transfected into the KJMGER8 cells by the electroporation method [Cytotechnology, 1990, vol. 3, page 133], whereby the signals from human CCR10 could be detected by calcium assay (hereinafter to be referred to as hCCR10G16 cell). A Ga16 expression plasmid was produced by incorporating human Ga16 DNA into expression vector pAMoh (WO 03/087366). Expression of human CCR10 was induced by cultivating hCCR10G16 cells in the presence of 10 nmol/L β-estradiol (manufactured by Sigma Ltd.) for 24 hr.
# (3) Calcium Assay of Human CCR10
# Cells expressing human CCR10 induced by the above-mentioned method were suspended in RPMI1640 medium (manufactured by Invitrogen), and adjusted to a cell density of 2×10^6 cells/mL. The cells were blended with an equivalent volume of a loading buffer prepared according to the attached protocol of Fluo-3 calcium assay kit (manufactured by Molecular Devices Corporation), and incubated at 37° C. for several dozen minutes. This mixture was dispensed to a 384 well clear-bottom plate (manufactured by Corning Incorporated) at 40 μL/well. To this plate was added a solution of the test compound in dimethyl sulfoxide (DMSO), which was diluted 37-fold with RPMI1640 medium, at 5 μL/well, and the mixture was incubated at 37° C. for 30 min. 300 nmol/L human recombinant CTACK (manufactured by R&D Systems, Inc.) diluted with RPMI1640 medium containing 1 w/v % bovine serum albumin (manufactured by Sigma Ltd.) was added at 5 μL/well and, variation of intracellular calcium ion concentration for about 5 min after the addition was measured by a screening apparatus (FDSS; manufactured by Hamamatsu Photonics K.K.). […]
row,inhibition at up to 1 µM [%],Compound
1,≥ 50,"Cc1cc(F)ccc1Nc1cc(S(=O)(=O)O)ncc1C(=O)N1CCC(c2ccc(F)cc2)CC1 [Compound 1, 4-(4-fluoro-2-methylphenylamino)-5-[4-(4-fluorophenyl)piperidine-1-carbonyl]pyridine-2-sulfonic acid]"
2,≥ 50,"Cc1cc(F)ccc1Nc1cc(S(N)(=O)=O)ncc1C(=O)N1CCC(c2ccc(F)cc2)CC1 [Compound 2, 4-(4-fluoro-2-methylphenylamino)-5-[4-(4-fluorophenyl)piperidine-1-carbonyl]pyridine-2-sulfonamide]"
3,≥ 50,"NS(=O)(=O)c1cc(Nc2ccc3c(c2)COC3)c(C(=O)N2CCC(c3ccc(F)cc3)CC2)cn1 [Compound 3, 4-(1,3-dihydroisobenzofuran-5-ylamino)-5-[4-(4-fluorophenyl)piperidine-1-carbonyl]pyridine-2-sulfonamide]"
4,≥ 50,"NS(=O)(=O)c1cc(Nc2ccc3ncccc3c2)c(C(=O)N2CCC(c3ccc(F)cc3)CC2)cn1 [Compound 4, 5-[4-(4-fluorophenyl)piperidine-1-carbonyl]-4-(quinolin-6-ylamino)pyridine-2-sulfonamide]"
5,≥ 50,"Cc1cc(F)ccc1Nc1cc(S(=O)(=O)NC2CC2)ncc1C(=O)N1CCC(c2ccc(F)cc2)CC1 [Compound 5, N-cyclopropyl-4-(4-fluoro-2-methylphenylamino)-5-[4-(4-fluorophenyl)piperidine-1-carbonyl]pyridine-2-sulfonamide]"
6,≥ 50,"CC(=O)NC1CCN(S(=O)(=O)c2cc(Nc3ccc(F)cc3C)c(C(=O)N3CCC(c4ccc(F)cc4)CC3)cn2)C1 (stereo not drawn) [Compound 7, N-{1-{4-(4-fluoro-2-methylphenylamino)-5-[4-(4-fluorophenyl)piperidine-1-carbonyl]pyridin-2-ylsulfonyl}pyrrolidin-3-yl}acetamide]"
7,≥ 50,"Cc1cc(F)ccc1Nc1cc(S(=O)(=O)NC2CCN(C)C2=O)ncc1C(=O)N1CCC(c2ccc(F)cc2)CC1 (stereo not drawn) [Compound 8, 4-(4-fluoro-2-methylphenylamino)-5-[4-(4-fluorophenyl)piperidine-1-carbonyl]-N-(1-methyl-2-oxopyrrolidin-3-yl)pyridine-2-sulfonamide]"
8,≥ 50,"Cc1cc(F)ccc1Nc1cc(S(=O)(=O)N2CCNCC2)ncc1C(=O)N1CCC(c2ccc(F)cc2)CC1 [Compound 9, [4-(4-fluoro-2-methylphenylamino)-6-(piperazin-1-ylsulfonyl)pyridin-3-yl][4-(4-fluorophenyl)piperidin-1-yl]methanone]"
9,≥ 50,"Cc1cc(F)ccc1Nc1cc(S(=O)(=O)N2CCC(N)CC2)ncc1C(=O)N1CCC(c2ccc(F)cc2)CC1 [Compound 10, [6-(4-aminopiperidin-1-ylsulfonyl)-4-(4-fluoro-2-methylphenylamino)pyridin-3-yl][4-(4-fluorophenyl)piperidin-1-yl]methanone]"
10,≥ 50,"Cc1cc(NS(=O)(=O)c2cc(Nc3ccc(F)cc3C)c(C(=O)N3CCC(c4ccc(F)cc4)CC3)cn2)on1 [Compound 12, 4-(4-fluoro-2-methylphenylamino)-5-[4-(4-fluorophenyl)piperidine-1-carbonyl]-N-(3-methylisoxazol-5-yl)pyridine-2-sulfonamide]"
11,≥ 50,"CC(=O)NS(=O)(=O)c1cc(Nc2ccc(F)cc2C)c(C(=O)N2CCC(c3ccc(F)cc3)CC2)cn1 [Compound 13, N-{4-(4-fluoro-2-methylphenylamino)-5-[4-(4-fluorophenyl)piperidine-1-carbonyl]pyridine-2-sulfonyl}acetamide]"
12,≥ 50,"Cc1cc(F)ccc1Nc1cc(S(=O)(=O)NC(=O)C2CC2(F)F)ncc1C(=O)N1CCC(c2ccc(F)cc2)CC1 (stereo not drawn) [Compound 14, 2,2-difluoro-N-{4-(4-fluoro-2-methylphenylamino)-5-[4-(4-fluorophenyl)piperidine-1-carbonyl]pyridine-2-sulfonyl}cyclopropanecarboxamide]"
13,≥ 50,"NS(=O)(=O)c1cc(NCc2ccccc2)c(C(=O)N2CCC(c3ccc(F)cc3)CC2)cn1 [Compound 15, 4-(benzylamino)-5-[4-(4-fluorophenyl)piperidine-1-carbonyl]pyridine-2-sulfonamide]"
14,≥ 50,"CCCNC(=O)NS(=O)(=O)c1cc(NCc2ccccc2)c(C(=O)N2CCC(c3ccc(F)cc3)CC2)cn1 [Compound 16, 4-(benzylamino)-5-[4-(4-fluorophenyl)piperidine-1-carbonyl]-N-(propylcarbamoyl)pyridine-2-sulfonamide]"
15,≥ 50,"Cc1cc(Nc2cc(S(N)(=O)=O)ncc2C(=O)N2CCC(c3ccc(F)cc3)CC2)c(C)cc1Cl [Compound 17, 4-(4-chloro-2,5-dimethylphenylamino)-5-[4-(4-fluorophenyl)piperidine-1-carbonyl]pyridine-2-sulfonamide]"
16,≥ 50,"Cc1cc(Nc2cc(S(=O)(=O)NC(=O)NC(C)C)ncc2C(=O)N2CCC(c3ccc(F)cc3)CC2)c(C)cc1Cl [Compound 18, 4-(4-chloro-2,5-dimethylphenylamino)-5-[4-(4-fluorophenyl)piperidine-1-carbonyl]-N-(isopropylcarbamoyl)pyridine-2-sulfonamide]"
17,≥ 50,"CCOC(=O)NS(=O)(=O)c1cc(Nc2cc(C)c(Cl)cc2C)c(C(=O)N2CCC(c3ccc(F)cc3)CC2)cn1 [Compound 19, ethyl 4-(4-chloro-2,5-dimethylphenylamino)-5-[4-(4-fluorophenyl)piperidine-1-carbonyl]pyridin-2-ylsulfonylcarbamate]"
18,≥ 50,"Cc1cc(Cl)ccc1Nc1cc(S(N)(=O)=O)ncc1C(=O)N1CCC(c2ccc(F)cc2)CC1 [Compound 20, 4-(4-chloro-2-methylphenylamino)-5-[4-(4-fluorophenyl)piperidine-1-carbonyl]pyridine-2-sulfonamide]"
19,≥ 50,"CCNC(=O)N(C)S(=O)(=O)c1cc(Nc2ccc(F)cc2C)c(C(=O)N2CCC(c3ccc(F)cc3)CC2)cn1 [Compound 23, N-(ethylcarbamoyl)-4-(4-fluoro-2-methylphenylamino)-5-[4-(4-fluorophenyl)piperidine-1-carbonyl]-N-methylpyridine-2-sulfonamide]"
20,≥ 50,"Cc1cc(F)ccc1Nc1c(C(=O)N2CCC(c3ccc(F)cc3)CC2)cnc(S(=O)(=O)O)c1Cl [Compound 24, 3-chloro-4-(4-fluoro-2-methylphenylamino)-5-[4-(4-fluorophenyl)piperidine-1-carbonyl]pyridine-2-sulfonic acid]"
21,≥ 50,"Cc1cccc(Nc2c(C(=O)N3CCC(c4ccc(F)cc4)CC3)cnc(S(N)(=O)=O)c2Cl)c1 [Compound 26, 3-chloro-5-[4-(4-fluorophenyl)piperidine-1-carbonyl]-4-(m-tolylamino)pyridine-2-sulfonamide]"
